Measured values from BindingDB's records for doi:10.1016/j.bmcl.2011.11.036 (Pfizer, 2011).

Experiment: Inhibition of mouse Sky kinase assessed as inhibition of src substrate phosphorylation by ELISA

| Structure (SMILES) | IC50 [nM] |
| --- | --- |
| O=C(c1cc2cc(Cl)ccc2[nH]1)N1C[C@]2(CCN(C3CCCNC3)C2)c2ccccc21 (stereo partly drawn) | 1040 |
| O=C(c1cc2cc(Cl)ccc2[nH]1)N1C[C@]2(CCN(C3CCNC3)C2)c2ccccc21 (stereo partly drawn) | 495 |
| O=C(c1cc2cc(Cl)ccc2[nH]1)N1C[C@]2(CCN(C3CCNCC3)C2)c2ccccc21 | 8660 |
| O=C(c1cc2cc(F)ccc2[nH]1)N1C[C@]2(CCN(C3CNC3)C2)c2ccccc21 | 1810 |
| CN1CCC(N2CC[C@]3(CN(C(=O)c4cc5cc(F)ccc5[nH]4)c4ccccc43)C2)CC1 | 2880 |
| O=C(c1cc2cc(F)ccc2[nH]1)N1C[C@]2(CCN(CC3CCCNC3)C2)c2ccccc21 (stereo partly drawn) | 4410 |
| C[C@@H]1CCC(N2CC[C@]3(CN(C(=O)c4cc5ccccc5[nH]4)c4ccccc43)C2)CN1 (stereo partly drawn) | 246 |
| C[C@@H]1CCC(N2CC[C@]3(CN(C(=O)c4cc5ccc(F)cc5[nH]4)c4ccccc43)C2)CN1 (stereo partly drawn) | 189 |
| O=C(c1cc2ccc(F)cc2[nH]1)N1C[C@]2(CCN(C3CCNC3)C2)c2ccccc21 (stereo partly drawn) | 598 |
| CCN1CCCC(N2CC[C@]3(CN(C(=O)c4cc5cc(F)ccc5[nH]4)c4ccccc43)C2)C1 (stereo partly drawn) | 4930 |
| O=C(c1cc2cc(F)ccc2[nH]1)N1C[C@]2(CCN(C3CCCCC3)C2)c2ccccc21 | 27900 |
| Cc1ccc(N2CC[C@@]3(C2)CN(C(=O)c2cc4cc(F)ccc4[nH]2)c2ccccc23)cn1 | 37800 |
| Cc1ccc2[nH]c(C(=O)N3C[C@]4(CCN(C5CCNC5)C4)c4ccccc43)cc2c1 (stereo partly drawn) | 811 |
| COc1ccc2[nH]c(C(=O)N3C[C@]4(CCN(C5CCNC5)C4)c4ccccc43)cc2c1 (stereo partly drawn) | 501 |
| COc1ccc2cc(C(=O)N3C[C@]4(CCN(C5CCNC5)C4)c4ccccc43)[nH]c2c1 (stereo partly drawn) | 843 |
| NC(=O)c1ccc2cc(C(=O)N3C[C@]4(CCN(C5CCNC5)C4)c4ccccc43)[nH]c2c1 (stereo partly drawn) | 2200 |
| N#Cc1ccc2cc(C(=O)N3C[C@]4(CCN(C5CCNC5)C4)c4ccccc43)[nH]c2c1 (stereo partly drawn) | 1130 |
| O=C(c1cc2c(Cl)cccc2[nH]1)N1C[C@]2(CCN(C3CCNC3)C2)c2ccccc21 (stereo partly drawn) | 560 |
